# Results from DBAASP.
# Values joined by “and” are separate entries in the source; they are usually repeats but may differ in a detail not shown here. Equal entries are not always repeated.
# Experiments:
# Assay in all cases: ≥ marks a high value that may be exact or a test limit, other limits are often not marked, values filed in µg/mL are converted to µM
# [1] = system: Escherichia coli CMCC 44102
# [2] = system: Listeria monocytogenes ATCC 19115
# [3] = system: Pseudomonas aeruginosa CMCC 10104
# [4] = system: Bacillus subtilis CMCC 63501
# [5] = system: Staphylococcus aureus CMCC 26003
# Bacillus subtilis = system: Bacillus subtilis
# Escherichia coli W160-37 = system: Escherichia coli W160-37
# [6] = system: Staphylococcus aureus 8530
# [7] = system: Pseudomonas putida NCIM 2102
# [8] = system: Penicillium expansum EPS 26
# [9] = system: Erwinia amylovora PMV 6076
# [10] = system: Escherichia coli DH5alpha
# [11] = system: Xanthomonas vesicatoria 2133-2
# [12] = system: Saccharomyces cerevisiae FY1679
# [13] = system: Penicillium digitatum PHI-26
# [14] = system: Fusarium oxysporum f. sp. lycopersici ATCC 201829
# [15] = system: Aspergillus niger CECT 2694
# [16] = system: Pseudomonas syringae EPS 94
# [17] = system: Rhizopus stolonifer CECT 2344
# [18] = system: Salmonella typhimurium DA6192
# [19] = system: Staphylococcus aureus ATCC 6538
# Escherichia coli K-12 = system: Escherichia coli K-12
# [20] = system: Salmonella typhimurium DA23899
# [21] = system: Salmonella typhimurium DA22427
# [22] = system: Bacillus subtilis ATCC 6633
# [23] = system: Micrococcus luteus NCIMB 13267
# [24] = system: Pseudomonas aeruginosa ATCC 27853
# [25] = system: Listeria monocytogenes ATCC 15313
# [26] = system: Staphylococcus aureus ATCC 12493
# [27] = system: Staphylococcus aureus ATCC 25923
# [28] = system: Salmonella enterica subsp. enterica serovar Enteritidis ATCC 13076
# Escherichia coli = system: Escherichia coli
# [29] = system: Staphylococcus aureus NCTC 10788
# [30] = system: Candida albicans NCTC 1467
# [31] = system: Escherichia coli ATCC 25922
# [32] = system: Enterococcus faecalis ATCC 29212
# [33] = system: Bacillus subtilis ATCC 23857
# [34] = system: Candida albicans ATCC 10231
# [35] = system: Bacillus cereus ATCC 11778
# [36] = system: Enterococcus faecalis NCTC 12697
# [37] = system: Klebsiella pneumoniae ATCC 700603
# [38] = system: Escherichia coli NCTC 10418
# Micrococcus luteus A270 = system: Micrococcus luteus A270
# Escherichia coli SBS 363 = system: Escherichia coli SBS 363
# Candida albicans MDM8 = system: Candida albicans MDM8
smiles,measurement,setting,value
CC[C@H](C)[C@H](NC(=O)[C@H](CCCN=C(N)N)NC(=O)[C@H](CCCN=C(N)N)NC(=O)[C@H](Cc1c[nH]c2ccccc12)NC(=O)[C@@H](N)Cc1ccccc1)C(=O)N[C@@H](CCCN=C(N)N)C(=O)N[C@H](C(=O)N[C@H](C(=O)N1CCC[C@H]1C(=O)N[C@H](C(=O)N[C@H](C(=O)N[C@@H](CC(N)=O)C(=O)N1CCC[C@H]1C(=O)N[C@@H](Cc1c[nH]c2ccccc12)C(=O)N[C@@H](Cc1ccccc1)C(=O)N[C@@H](CC(C)C)C(=O)N[C@@H](CCC(N)=O)C(=O)N[C@@H](CCC(N)=O)C(=O)N[C@H](C(N)=O)[C@@H](C)O)C(C)C)C(C)C)[C@@H](C)O)C(C)C [FWRRIRVTPVVNPWFLQQT],MIC,[1],≥ 105 µM
same,MIC,[2],13.1 µM
same,MIC,[3],≥ 105 µM
same,MIC,[4],26.2 µM
same,MIC,[5],13.1 µM
CC[C@H](C)[C@H](NC(=O)[C@H](CC(C)C)NC(=O)[C@H](C)NC(=O)[C@@H]1CCCN1C(=O)[C@H](CC(C)C)NC(=O)CN)C(=O)N[C@@H](CO)C(=O)N[C@@H](Cc1c[nH]c2ccccc12)C(=O)N[C@H](C(=O)N[C@@H](CCCCN)C(=O)N[C@@H](CCCN=C(N)N)C(=O)N[C@@H](CCCCN)C(=O)N[C@@H](CCCN=C(N)N)C(=O)N[C@@H](CCC(N)=O)C(=O)N[C@@H](CCC(N)=O)C(=O)NCC(N)=O)[C@@H](C)CC [GLPALISWIKRKRQQG],MIC,Bacillus subtilis,10.5 µM
same,MIC,Escherichia coli W160-37,21.4 µM
same,MIC,[6],16 µM
same,MIC,[7],≥ 108 µM
CC[C@H](C)[C@H](NC(=O)[C@H](CCCCN)NC(=O)[C@H](CCCCN)NC(=O)[C@H](Cc1ccccc1)NC(=O)[C@H](CC(C)C)NC(=O)[C@H](CCCCN)NC(=O)[C@@H](N)CCCCN)C(=O)N[C@@H](CC(C)C)C(=O)N[C@@H](CCCCN)C(=O)N[C@H](C(=O)N[C@@H](CC(C)C)C(N)=O)C(C)C [KKLFKKILKVL],MIC,[8],13.7 µM
same,MIC,[9],5.92 µM
same,MIC,[10],4 µM
same,MIC,[11],13.4 µM
same,MIC,[12],16 µM
same,MIC,[13],4 µM
same,MIC,[14],0.849 µM
same,MIC,[15],6.12 µM
same,MIC,[16],3.16 µM
same,MIC,[17],8.66 µM
CC[C@H](C)[C@H](NC(=O)CNC(=O)[C@H](CC(N)=O)NC(=O)[C@H](CCCN=C(N)N)NC(=O)[C@@H](NC(=O)[C@H](CC(N)=O)NC(=O)[C@H](CCCN=C(N)N)NC(=O)CNC(=O)[C@H](CCSC)NC(=O)[C@H](CCCCN)NC(=O)[C@H](CCC(=O)O)NC(=O)[C@@H](NC(=O)[C@H](CCCCN)NC(=O)[C@H](CCCCN)NC(=O)[C@H](Cc1ccccc1)NC(=O)[C@@H](NC(=O)[C@H](CCCCN)NC(=O)[C@H](Cc1c[nH]c2ccccc12)NC(=O)[C@@H](N)CCCCN)C(C)C)[C@@H](C)CC)[C@@H](C)CC)C(=O)N[C@H](C(=O)N[C@@H](CCCCN)C(N)=O)C(C)C [KWKVFKKIEKMGRNIRNGIVK],MIC,[18],12 µM
same,MIC,[19],> 100 µM
same,MIC,Escherichia coli K-12,6 µM
same,MIC,[20],25 µM
same,MIC,[21],12 µM
same,MIC,[22],5 µM
same,MIC,[23],1 µM
same,MIC,[24],1.5 µM
CC[C@H](C)[C@H](NC(=O)[C@H](CCCCN)NC(=O)[C@H](CCCCN)NC(=O)[C@H](C)NC(=O)[C@@H](NC(=O)[C@H](C)NC(=O)[C@H](CC(C)C)NC(=O)[C@H](CC(C)C)NC(=O)[C@H](C)NC(=O)[C@H](CCCCN)NC(=O)[C@H](CC(C)C)NC(=O)[C@H](CC(N)=O)NC(=O)[C@@H](N)CC(C)C)C(C)C)C(=O)N[C@@H](CC(C)C)C(N)=O [LNLKALLAVAKKIL],MIC,[25],4 µM
same,MIC,[26],4 µM
same,MIC,[27],4 µM
same,MIC,[28],4 µM
same,MIC,Escherichia coli,4 µM
same,MIC,[29],2 µM
same,MIC,[30],4 µM
same,MIC,[31],4 µM and 8 µM
same,MIC,[32],≥ 32 µM
same,MIC,[33],4 µM
same,MIC,[34],8 µM
same,MIC,[24],8 µM and 16 µM
same,MIC,[35],4 µM and 8 µM
same,MIC,[36],8 µM
same,MIC,[37],8 µM
same,MIC,[38],4 µM
CC[C@H](C)[C@H](NC(=O)[C@H](CC(C)C)NC(=O)[C@H](CCCCN)NC(=O)[C@H](CCCN=C(N)N)NC(=O)[C@H](Cc1ccccc1)NC(=O)[C@H](CC(C)C)NC(=O)[C@H](CO)NC(=O)[C@H](CC(C)C)NC(=O)[C@H](CC(C)C)NC(=O)[C@@H](N)CO)C(N)=O [SLLSLFRKLI],MIC,Micrococcus luteus A270,1.56 µM
same,MIC,Escherichia coli SBS 363,3.12 µM
same,MIC,Candida albicans MDM8,1.56 µM
